Measurements taken from US10967167B2, “Using alternating electric fields to increase permeability of the blood brain barrier” (priority 2018, dated 2021).

How the values were obtained:
rat brain (BBB) [1] = test: Evans Blue accumulation in rat brain after alternating electric fields; format: in vivo
Description: A set of in vivo experiments on rats was also run to quantify the increase in vessel permeability caused by exposure to the alternating electric fields. These experiments used Evans Blue (EB) dye, which is an azo dye that has a very high affinity for serum albumin (molecule size ˜69 kDa). Because of its large molecule size, serum albumin will ordinarily not be able to get past the BBB.
This was accomplished by shaving each rat's head, positioning a first pair of capacitively coupled electrodes on the top and bottom of the rat's head, and positioning a second pair of capacitively coupled electrodes on the left and right sides of the rat's head. A 100 kHz AC voltage was then applied between the top and bottom electrodes for 1 second, followed by a 100 kHz AC voltage applied between the right and left electrodes for 1 second, in a repeating sequence.
Under the conditions indicated in Table 1 and for the times indicated on Table 1, EB was injected intravenously into the tail vein under anesthesia (Once injected, EB immediately binds to Albumin), and the EB was allowed to circulate for 2 hours in all cases. The following steps were then performed: (a) intracardiac perfusion with saline; (b) brains are sliced in four pieces with a brain slicer; (c) pieces were photographed to localize staining and weighted; (d) EB extraction after tissue homogenization with TCA 50% (1:3) and centrifuge and (e) EB quantification at 610 nm. Results are given as μg EB per g tissue.
During the experiment, two animals from group 2 and one animal from group 4 were excluded (disrupted treatment, failure to inject EB into the tail vein). There were no differences between the animals treated with alternating electric fields (groups 1 and 2) and therefore these animals were grouped together. Similarly, there were no differences between sham heat and control animals (groups 3 and 4) and therefore these animals were grouped together.
EB accumulation in these four specific sections was then measured. In addition, a computer simulation was performed to determine the field strength in each of these four sections. […]

rat brain (BBB) [2] = test: Dynamic Contrast Enhanced MRI (DCE-MRI) of rat brain; format: in vivo
Method: Yet another set of in vivo experiments was performed using Dynamic Contrast Enhanced MRI (DCE-MRI) with intravenous injection of Gadolinium contrast agent (Gd-DTPA, Magnetol, MW 547). In these experiments, test rats were treated with 100 kHz alternating electric fields for 72 h, and control rats were not treated with alternating electric fields for the same period of time. After this 72 h period, the alternating electric field was turned off, the rats were anesthetized, and a series of 60 T1w MRI scans (each of the scans having a duration of 28 seconds) was acquired. The gadolinium contrast agent was injected into the rat's tail vein during the 7th of these 60 scans.
The image analysis for each rat included (1) determining a baseline for each voxel by calculating the mean of the first six T1w MRI scans for each voxel (i.e., the scans prior to the injection of the gadolinium); (2) computing voxel by voxel, the percent signal change (i.e., gadolinium accumulation) over time relative to the baseline; (3) segmenting the brain into anterior, middle, and posterior segments; (4) generating for each of the three segments the mean percent signal change with respect to the baseline over all the voxels in the respective segment and then (5) averaging 4 consecutive time points (i.e. 4 scans) together. Finally, the data from all of the rats within any given group were averaged together. […]

Row | average EB accumulation in the rat brain, averaged over all four sections 1-4 (rat brain (BBB) [1]; 100 kHz fields 72 h vs control, p<0.05) | EB accumulation in brain sections 1, 2 (frontal cerebrum) (rat brain (BBB) [1]; 100 kHz fields 72 h vs sham heat/control, EB i.v., 2 h circulation, highest field strength) | SMILES | EB accumulation in posterior brain sections (3, 4) (rat brain (BBB) [1]; 100 kHz fields 72 h vs sham heat/control, EB i.v., 2 h circulation, lower field strength) | contrast agent accumulation in the brain tissue (percent signal change) (rat brain (BBB) [2]; 100 kHz fields 72 h (n=6) vs control rats (n=3), i.v.) | contrast agent accumulation in the brain tissue (percent signal change) (rat brain (BBB) [2]; 100 kHz fields 72 h followed by 96 hours without fields (n=7) vs control+96 h (n=3))
1 | higher accumulation | statistically significant increase | Cc1cc(-c2ccc(/N=N/c3ccc4c(S(=O)(=O)O)cc(S(=O)(=O)O)c(N)c4c3O)c(C)c2)ccc1/N=N/c1ccc2c(S(=O)(=O)O)cc(S(=O)(=O)O)c(N)c2c1O [EB, Evans Blue] | smaller increase (that was not statistically significant) | – | –
2 | – | – | O=C([O-])CN(CCN(CC(=O)[O-])CC(=O)O)CCN(CC(=O)[O-])CC(=O)O.[Gd+3] [contrast agent, Gd-DTPA] | – | significantly higher | not significantly different
